Data as given in ChEMBL document CHEMBL2413072, “Synthesis and in vitro anticancer studies of novel C-2 arylidene congeners of lantadenes” (2013).

Legend:
Assay type in all cases: functional
[1] = Growth inhibition of human Hs 578T cells assessed as growth inhibition at 10 uM by sulforhodamine B assay; details: read-out: GI
MCF7 = assay: Growth inhibition of human MCF7 cells assessed as growth inhibition at 10 uM by sulforhodamine B assay; details: read-out: GI
TK-10 = assay: Growth inhibition of human TK10 cells assessed as growth inhibition at 10 uM by sulforhodamine B assay; details: read-out: GI
ACHN [2] = assay: Growth inhibition of human ACHN cells assessed as growth inhibition at 10 uM by sulforhodamine B assay; details: read-out: GI
786-0 = assay: Growth inhibition of human 786-0 cells assessed as growth inhibition at 10 uM by sulforhodamine B assay; details: read-out: GI
SK-OV-3 [3] = assay: Growth inhibition of human SKOV3 cells assessed as growth inhibition at 10 uM by sulforhodamine B assay; details: read-out: GI
[4] = Growth inhibition of human NCI-ADR-RES cells assessed as growth inhibition at 10 uM by sulforhodamine B assay; details: read-out: GI
OVCAR-8 = assay: Growth inhibition of human OVCAR8 cells assessed as growth inhibition at 10 uM by sulforhodamine B assay; details: read-out: GI
HL-60(TB) = assay: Growth inhibition of human HL-60(TB) cells assessed as cell growth at 10 uM by sulforhodamine B assay; details: read-out: Activity
OVCAR-4 = assay: Growth inhibition of human OVCAR4 cells assessed as growth inhibition at 10 uM by sulforhodamine B assay; details: read-out: GI
IGROV-1 = assay: Growth inhibition of human IGROV1 cells assessed as growth inhibition at 10 uM by sulforhodamine B assay; details: read-out: GI
UACC-257 = assay: Growth inhibition of human UACC257 cells assessed as growth inhibition at 10 uM by sulforhodamine B assay; details: read-out: GI
SK-MEL-2 = assay: Growth inhibition of human SK-MEL-2 cells assessed as growth inhibition at 10 uM by sulforhodamine B assay; details: read-out: GI
SNB-75 [5] = assay: Growth inhibition of human SNB75 cells assessed as growth inhibition at 10 uM by sulforhodamine B assay; details: read-out: GI
SF-295 = assay: Growth inhibition of human SF295 cells assessed as growth inhibition at 10 uM by sulforhodamine B assay; details: read-out: GI
HCT-116 = assay: Growth inhibition of human HCT116 cells assessed as growth inhibition at 10 uM by sulforhodamine B assay; details: read-out: GI
[6] = Growth inhibition of human HCC2998 cells assessed as growth inhibition at 10 uM by sulforhodamine B assay; details: HCC 2998, read-out: GI
COLO 205 [7] = assay: Growth inhibition of human COLO205 cells assessed as growth inhibition at 10 uM by sulforhodamine B assay; details: read-out: GI
NCI-H522 = assay: Growth inhibition of human NCI-H522 cells assessed as growth inhibition at 10 uM by sulforhodamine B assay; details: read-out: GI
NCI-H23 [8] = assay: Growth inhibition of human NCI-H23 cells assessed as growth inhibition at 10 uM by sulforhodamine B assay; details: read-out: GI
NCI-H226 [9] = assay: Growth inhibition of human NCI-H226 cells assessed as growth inhibition at 10 uM by sulforhodamine B assay; details: read-out: GI
[10] = Growth inhibition of human EKVX cells assessed as growth inhibition at 10 uM by sulforhodamine B assay; details: read-out: GI
A549 [11] = assay: Growth inhibition of human A549/ATCC cells assessed as growth inhibition at 10 uM by sulforhodamine B assay; details: read-out: GI
CCRF-CEM = assay: Growth inhibition of human CCRF-CEM cells assessed as growth inhibition at 10 uM by sulforhodamine B assay; details: read-out: GI
MDA-MB-468 = assay: Growth inhibition of human MDA-MB-468 cells assessed as cell growth at 10 uM by sulforhodamine B assay; details: read-out: Activity
MDA-MB-231 = assay: Growth inhibition of human MDA-MB-231 cells assessed as cell growth at 10 uM by sulforhodamine B assay; details: read-out: Activity
DU-145 = assay: Growth inhibition of human DU145 cells assessed as cell growth at 10 uM by sulforhodamine B assay; details: read-out: Activity
ACHN [12] = assay: Growth inhibition of human ACHN cells assessed as cell growth at 10 uM by sulforhodamine B assay; details: read-out: Activity
A498 = assay: Growth inhibition of human A498 cells assessed as cell growth at 10 uM by sulforhodamine B assay; details: read-out: Activity
SK-OV-3 [13] = assay: Growth inhibition of human SKOV3 cells assessed as cell growth at 10 uM by sulforhodamine B assay; details: read-out: Activity
[14] = Growth inhibition of human NCI-ADR-RES cells assessed as cell growth at 10 uM by sulforhodamine B assay; details: read-out: Activity
OVCAR-3 = assay: Growth inhibition of human OVCAR3 cells assessed as cell growth at 10 uM by sulforhodamine B assay; details: read-out: Activity
SK-MEL-5 = assay: Growth inhibition of human SK-MEL-5 cells assessed as cell growth at 10 uM by sulforhodamine B assay; details: read-out: Activity
SK-MEL-28 = assay: Growth inhibition of human SK-MEL-28 cells assessed as cell growth at 10 uM by sulforhodamine B assay; details: read-out: Activity
MDA-MB-435 = assay: Growth inhibition of human MDA-MB-435 cells assessed as cell growth at 10 uM by sulforhodamine B assay; details: read-out: Activity
LOX IMVI = assay: Growth inhibition of human LOXIMVI cells assessed as cell growth at 10 uM by sulforhodamine B assay; details: read-out: Activity
U-251 = assay: Growth inhibition of human U251 cells assessed as cell growth at 10 uM by sulforhodamine B assay; details: read-out: Activity
SNB-75 [15] = assay: Growth inhibition of human SNB75 cells assessed as cell growth at 10 uM by sulforhodamine B assay; details: read-out: Activity
SNB-19 = assay: Growth inhibition of human SNB19 cells assessed as cell growth at 10 uM by sulforhodamine B assay; details: read-out: Activity
HT-29 = assay: Growth inhibition of human HT-29 cells assessed as cell growth at 10 uM by sulforhodamine B assay; details: read-out: Activity
COLO 205 [16] = assay: Growth inhibition of human COLO205 cells assessed as cell growth at 10 uM by sulforhodamine B assay; details: read-out: Activity
NCI-H322M = assay: Growth inhibition of human NCI-H322M cells assessed as cell growth at 10 uM by sulforhodamine B assay; details: read-out: Activity
NCI-H23 [17] = assay: Growth inhibition of human NCI-H23 cells assessed as cell growth at 10 uM by sulforhodamine B assay; details: read-out: Activity
NCI-H226 [18] = assay: Growth inhibition of human NCI-H226 cells assessed as cell growth at 10 uM by sulforhodamine B assay; details: read-out: Activity
HOP-92 = assay: Growth inhibition of human HOP92 cells assessed as cell growth at 10 uM by sulforhodamine B assay; details: read-out: Activity
[19] = Growth inhibition of human EKVX cells assessed as cell growth at 10 uM by sulforhodamine B assay; details: read-out: Activity
HOP-62 = assay: Growth inhibition of human HOP62 cells assessed as cell growth at 10 uM by sulforhodamine B assay; details: read-out: Activity
A549 [20] = assay: Growth inhibition of human A549/ATCC cells assessed as cell growth at 10 uM by sulforhodamine B assay; details: read-out: Activity

## CC(C)=CC(=O)O[C@@H]1CC(C)(C)C[C@H]2C3=CC[C@@H]4[C@@]5(C)CC[C@H](O)C(C)(C)[C@@H]5CC[C@@]4(C)[C@]3(C)CC[C@@]12C(=O)O [Reduced Lantadene B]
[1]
  inhibition of growth at 10 µM: 14.5%
MCF7
  inhibition of growth at 10 µM: 37.3%
TK-10
  inhibition of growth at 10 µM: 20.1%
ACHN [2]
  inhibition of growth at 10 µM: 53.7%
786-0
  inhibition of growth at 10 µM: 38.2%
SK-OV-3 [3]
  inhibition of growth at 10 µM: 10.6%
[4]
  inhibition of growth at 10 µM: 45.5%
OVCAR-8
  inhibition of growth at 10 µM: 40.1%
HL-60(TB)
  growth at 10 µM: 14%
OVCAR-4
  inhibition of growth at 10 µM: 29.3%
IGROV-1
  inhibition of growth at 10 µM: 21.7%
UACC-257
  inhibition of growth at 10 µM: < 10%
SK-MEL-2
  inhibition of growth at 10 µM: 13.5%
SNB-75 [5]
  inhibition of growth at 10 µM: 26.8%
SF-295
  inhibition of growth at 10 µM: 55.4%
HCT-116
  inhibition of growth at 10 µM: 72.8%
[6]
  inhibition of growth at 10 µM: 38%
COLO 205 [7]
  inhibition of growth at 10 µM: 31.9%
NCI-H522
  inhibition of growth at 10 µM: 32.4%
NCI-H23 [8]
  inhibition of growth at 10 µM: 36.6%
NCI-H226 [9]
  inhibition of growth at 10 µM: 21.3%
[10]
  inhibition of growth at 10 µM: 52.3%
A549 [11]
  inhibition of growth at 10 µM: 76.5%
CCRF-CEM
  inhibition of growth at 10 µM: 72.6%
MDA-MB-468
  growth at 10 µM: 113%
MDA-MB-231
  growth at 10 µM: 81.3%
DU-145
  growth at 10 µM: 86.6%
ACHN [12]
  growth at 10 µM: 46.3%
A498
  growth at 10 µM: 100%
SK-OV-3 [13]
  growth at 10 µM: 89.4%
[14]
  growth at 10 µM: 54.5%
OVCAR-3
  growth at 10 µM: 73.9%
SK-MEL-5
  growth at 10 µM: 61.5%
SK-MEL-28
  growth at 10 µM: 88.3%
MDA-MB-435
  growth at 10 µM: 95.3%
LOX IMVI
  growth at 10 µM: 53.2%
U-251
  growth at 10 µM: 39.2%
SNB-75 [15]
  growth at 10 µM: 73.2%
SNB-19
  growth at 10 µM: 85.6%
HT-29
  growth at 10 µM: 49.3%
COLO 205 [16]
  growth at 10 µM: 68.1%
NCI-H322M
  growth at 10 µM: 59.7%
NCI-H23 [17]
  growth at 10 µM: 63.4%
NCI-H226 [18]
  growth at 10 µM: 78.7%
HOP-92
  growth at 10 µM: 43%
[19]
  growth at 10 µM: 47.7%
HOP-62
  growth at 10 µM: 53.7%
A549 [20]
  growth at 10 µM: 23.5%

## CC1(C)C[C@@H](O)[C@]2(C(=O)O)CC[C@]3(C)C(=CC[C@@H]4[C@@]5(C)CCC(=O)C(C)(C)[C@@H]5CC[C@]43C)[C@@H]2C1
[1]
  inhibition of growth at 10 µM: < 10%
MCF7
  inhibition of growth at 10 µM: 18.6%
TK-10
  inhibition of growth at 10 µM: < 10%
ACHN [2]
  inhibition of growth at 10 µM: < 10%
786-0
  inhibition of growth at 10 µM: 13.8%
SK-OV-3 [3]
  inhibition of growth at 10 µM: < 10%
[4]
  inhibition of growth at 10 µM: < 10%
OVCAR-8
  inhibition of growth at 10 µM: 19.2%
HL-60(TB)
  growth at 10 µM: 75.2%
OVCAR-4
  inhibition of growth at 10 µM: 14.1%
IGROV-1
  inhibition of growth at 10 µM: < 10%
UACC-257
  inhibition of growth at 10 µM: < 10%
SK-MEL-2
  inhibition of growth at 10 µM: < 10%
SNB-75 [5]
  inhibition of growth at 10 µM: < 10%
SF-295
  inhibition of growth at 10 µM: 19.3%
HCT-116
  inhibition of growth at 10 µM: 21.2%
[6]
  inhibition of growth at 10 µM: < 10%
COLO 205 [7]
  inhibition of growth at 10 µM: < 10%
NCI-H522
  inhibition of growth at 10 µM: 19.1%
NCI-H23 [8]
  inhibition of growth at 10 µM: < 10%
NCI-H226 [9]
  inhibition of growth at 10 µM: < 10%
[10]
  inhibition of growth at 10 µM: < 10%
A549 [11]
  inhibition of growth at 10 µM: 21%
CCRF-CEM
  inhibition of growth at 10 µM: 12.5%
MDA-MB-468
  growth at 10 µM: 96.2%
MDA-MB-231
  growth at 10 µM: 91.3%
DU-145
  growth at 10 µM: 113%
ACHN [12]
  growth at 10 µM: 91.8%
A498
  growth at 10 µM: 91.2%
SK-OV-3 [13]
  growth at 10 µM: 102%
[14]
  growth at 10 µM: 100%
OVCAR-3
  growth at 10 µM: 104%
SK-MEL-5
  growth at 10 µM: 87.8%
SK-MEL-28
  growth at 10 µM: 98%
MDA-MB-435
  growth at 10 µM: 102%
LOX IMVI
  growth at 10 µM: 93.2%
U-251
  growth at 10 µM: 89.2%
SNB-75 [15]
  growth at 10 µM: 101%
SNB-19
  growth at 10 µM: 94.2%
HT-29
  growth at 10 µM: 83.2%
COLO 205 [16]
  growth at 10 µM: 101%
NCI-H322M
  growth at 10 µM: 97.5%
NCI-H23 [17]
  growth at 10 µM: 92.3%
NCI-H226 [18]
  growth at 10 µM: 103%
HOP-92
  growth at 10 µM: 75.4%
[19]
  growth at 10 µM: 99.2%
HOP-62
  growth at 10 µM: 88.7%
A549 [20]
  growth at 10 µM: 79%
